pEC50, pIC50: −log10 of the molar value. Where two headings read alike, the source gives them in different places. A value given as a limit tells only on which side of the number the result lay.

The target in experiment [1] is T1, CD73 (Homo sapiens, UniProt P21589).
T1 construct: purchased R&D system
T1 sequence (P21589 27-549): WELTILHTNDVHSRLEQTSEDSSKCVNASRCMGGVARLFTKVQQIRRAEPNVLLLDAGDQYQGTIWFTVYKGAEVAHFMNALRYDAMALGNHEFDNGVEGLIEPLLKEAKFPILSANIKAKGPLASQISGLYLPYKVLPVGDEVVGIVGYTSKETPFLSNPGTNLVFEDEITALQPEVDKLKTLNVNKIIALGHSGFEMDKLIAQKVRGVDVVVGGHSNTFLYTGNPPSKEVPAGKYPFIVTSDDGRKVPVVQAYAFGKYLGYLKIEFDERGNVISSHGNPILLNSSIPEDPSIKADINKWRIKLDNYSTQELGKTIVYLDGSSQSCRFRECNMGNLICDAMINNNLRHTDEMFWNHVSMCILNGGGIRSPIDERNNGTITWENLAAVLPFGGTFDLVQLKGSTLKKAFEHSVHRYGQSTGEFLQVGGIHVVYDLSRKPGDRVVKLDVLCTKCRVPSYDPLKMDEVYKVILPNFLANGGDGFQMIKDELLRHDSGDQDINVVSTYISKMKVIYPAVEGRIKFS
In words: CD73 Biochemical IC50 Assay. The note with it: final AMP 15 uM, final CD73 0.3 nM, 25 mM Tris pH 7.4, 5 mM MgCl2, no phosphate. The protocol: CD73 Biochemical IC50 Assay
Compound serial dilutions were pre-spotted into Thermo Nunc assay plate. 50 μL CD73 enzyme buffer (CD73 purchased from R&D system=0.6 nM, 25 mM Tris, pH 7.4, 5 mM MgCl2) was added into the assay plate and incubated for 15 mins. […] The samples were run using Rapid fire.

The target in experiment [2] is T1, CD73. Type of experiment: biochemical. The note with it: 1 mM NaH2PO4 in enzyme buffer, final AMP 15 uM, final CD73 0.3 nM.
In experiment [3] the target is T2, CD73 activity in MDA-MB-231-GFP cells (Homo sapiens, UniProt P21589).
T2 construct: endogenous in cells; host or cells: MDA-MB-231-GFP cells
T2 sequence (P21589 27-549): T1 sequence (P21589 27-549)
Put plainly: MDA-MB-231 Cell Based CD73 Activity Assay (DMEM). As to conditions: 3000 cells per well, DMEM medium with 10% human plasma, overnight compound treatment, AMP 200 uM.

In general, pIC50 refers to the negative decadic logarithm of the IC50, by convention in mol/L. Lower therefore signals a high IC50. In experiment [1], `O=c1[nH]cc(-c2cc([C@@H]3CC34CCC4)c3nccn3n2)c(=O)[nH]1` (racemic) [Example 5, (S)-5-(8-(spiro[2.3]hexan-1-yl)imidazo[1,2-b]pyridazin-6-yl)pyrimidine-2,4(1H,3H)-dione and (R)-5-(8-(spiro[2.3]hexan-1-yl)imidazo[1,2-b]pyridazin-6-yl)pyrimidine-2,4(1H,3H)-dione] showed a pIC50 of no more than 5.60.
Compound `O=c1[nH]cc(-c2cc([C@@H]3C[C@H]3c3ccc(C(F)(F)F)c(F)c3)c3nccn3n2)c(=O)[nH]1` (racemic) [Example 100, 5-(8-((2S,2S)-2-(3-fluoro-4-(trifluoromethyl)phenyl)cyclopropyl)imidazo[1,2-b]pyridazin-6-yl)pyrimidine-2,4(1H,3H)-dione and 5-(8-((1R,2R)-2-(3-fluoro-4-(trifluoromethyl)phenyl)cyclopropyl)imidazo[1,2-b]pyridazin-6-yl)pyrimidine-2,4(1H,3H)-dione] showed a negative-log IC50 (pIC50) in experiment [1] of 7.01.
The pEC50 is the EC50 on a negative log10 scale, so that one unit is a factor of ten. Low readings indicate a large EC50, high ones a small EC50. As for `O=C(c1cn2nc(-c3c[nH]c(=O)[nH]c3=O)cc([C@H]3C[C@@H]3c3ccc(F)cc3)c2n1)N1C[C@@H](F)[C@@H](F)C1` (racemic) [Example 200, 5-[2-[(3S,4R)-3,4-difluoropyrrolidine-1-carbonyl]-8-[(1S,2S)-2-(4-fluorophenyl)cyclopropyl]imidazo[1,2-b]pyridazin-6-yl]-1H-pyrimidine-2,4-dione], in experiment [2], the pIC50 was less than 6.60. The compound further gave a negative logarithm of the EC50 (pEC50) in experiment [3] of 6.09.
The corresponding values for `O=c1[nH]cc(-c2cc([C@H]3C[C@@H]3c3ccnc(C(F)(F)F)n3)c3nccn3n2)c(=O)[nH]1` (racemic) [Example 271, 5-(8-((2S,2S)-2-(2-(trifluoromethyl)pyrimidin-4-yl)cyclopropyl)imidazo[1,2-b]pyridazin-6-yl)pyrimidine-2,4(1H,3H)-dione] are 7.47 and 6.99.
`O=c1[nH]cc(-c2cc([C@H]3C[C@@H]3c3ccc(OC(F)(F)F)cc3)c3ncc(F)n3n2)c(=O)[nH]1` (racemic) [Example 277, 5-(3-fluoro-8-((2S,2S)-2-(4-(trifluoromethoxy)phenyl)cyclopropyl)imidazo[1,2-b]pyridazin-6-yl)pyrimidine-2,4(1H,3H)-dione] gave a pIC50 in experiment [2] of 8.42. Moreover, the pEC50 in experiment [3] was 7.10.
For `NC(=O)c1ccc([C@H]2C[C@@H]2c2cc(-c3c[nH]c(=O)[nH]c3=O)nn3ccnc23)cc1` (racemic) [Example 283, 4-((2S,2S)-2-(6-(2,4-dioxo-1,2,3,4-tetrahydropyrimidin-5-yl)imidazo[1,2-b]pyridazin-8-yl)cyclopropyl)benzamide], in that order: 9.06 and 8.56.
Take `O=c1[nH]cc(-c2cc([C@H]3C[C@@H]3c3ccc4cnn(CCC(F)(F)F)c4c3)c3nccn3n2)c(=O)[nH]1` (racemic) [Example 361, 5-(8-((1S,2S)-2-(1-(3,3,3-trifluoropropyl)-1H-indazol-6-yl)cyclopropyl)imidazo[1,2-b]pyridazin-6-yl)pyrimidine-2,4(1H,3H)-dione]: the pIC50 in experiment [2] was 8.57. The compound also had a pEC50 in experiment [3] of 8.60.
For `N#Cc1nn(CC(F)(F)F)c2cc([C@H]3C[C@@H]3c3cc(-c4c[nH]c(=O)[nH]c4=O)nn4ccnc34)ccc12` (racemic) [Example 362, 6-((1S,2S)-2-(6-(2,4-dioxo-1,2,3,4-tetrahydropyrimidin-5-yl)imidazo[1,2-b]pyridazin-8-yl)cyclopropyl)-1-(2,2,2-trifluoroethyl)-1H-indazole-3-carbonitrile], in that order: 8.53 and 9.00.
The corresponding values for `O=c1[nH]cc(-c2cc([C@H]3C[C@@H]3c3cnc(C(F)(F)F)s3)c3nccn3n2)c(=O)[nH]1` (racemic) [Example 365, 5-(8-((2S,2S)-2-(2-(trifluoromethyl)thiazol-5-yl)cyclopropyl)imidazo[1,2-b]pyridazin-6-yl)pyrimidine-2,4(1H,3H)-dione] are 8.12 and 7.48.
For `O=c1[nH]cc(-c2cc([C@H]3C[C@@H]3c3nc(C(F)(F)F)cs3)c3nccn3n2)c(=O)[nH]1` (racemic) [Example 367, 5-(8-((2S,2S)-2-(4-(trifluoromethyl)thiazol-2-yl)cyclopropyl)imidazo[1,2-b]pyridazin-6-yl)pyrimidine-2,4(1H,3H)-dione], in that order: 7.76 and 7.17.
Compound `O=c1[nH]cc(-c2cc([C@H]3C[C@@H]3c3ccc(C(F)F)cn3)c3nccn3n2)c(=O)[nH]1` (racemic) [Example 379, 5-(8-((1S,2S)-2-(5-(difluoromethyl)pyridin-2-yl)cyclopropyl)imidazo[1,2-b]pyridazin-6-yl)pyrimidine-2,4(1H,3H)-dione] gave a pIC50 in experiment [2] of 8.70. The pEC50 in experiment [3] is 8.23.
Consider `O=C(NCC(F)(F)F)OC1CN(c2cc(-c3c[nH]c(=O)[nH]c3=O)nn3ncnc23)CC1(F)F` (racemic) [Example 436, 1-(6-(2,4-dioxo-1,2,3,4-tetrahydropyrimidin-5-yl)-[1,2,4]triazolo[1,5-b]pyridazin-8-yl)-4,4-difluoropyrrolidin-3-yl (2,2,2-trifluoroethyl)carbamate], for which the pIC50 in experiment [2] was 9.89. This compound gave a pEC50 in experiment [3] of 9.37.
On to `O=c1[nH]cc(-c2cc([C@H]3C[C@@H]3c3ccc(OCC(F)F)cn3)c3nccn3n2)c(=O)[nH]1` (racemic) [Example 590, 5-(8-((2S,2S)-2-(5-(2,2-difluoroethoxy)pyridin-2-yl)cyclopropyl)imidazo[1,2-b]pyridazin-6-yl)pyrimidine-2,4(1H,3H)-dione], for which the pIC50 in experiment [2] was 8.98. Besides, the pEC50 in experiment [3] was 8.69.
The corresponding values for `O=c1[nH]cc(-c2cc([C@H]3C[C@@H]3c3cnc4cnn(CC(F)(F)F)c4c3)c3nccn3n2)c(=O)[nH]1` (racemic) [Example 614, 5-(8-((1S,2S)-2-(1-(2,2,2-trifluoroethyl)-1H-pyrazolo[4,3-b]pyridin-6-yl)cyclopropyl)imidazo[1,2-b]pyridazin-6-yl)pyrimidine-2,4(1H,3H)-dione] are 8.69 and 9.89.
In experiment [2], `O=c1[nH]cc(-c2cc(N3C[C@H](O)C(F)(F)C3)c3nccn3n2)c(=O)[nH]1` (single isomer, unassigned) [Example 527] had a pIC50 of 8.25. This compound also had a pEC50 in experiment [3] of 7.79.
The corresponding values for `O=c1[nH]cc(-c2cc(N3C[C@@H](O)C(F)(F)C3)c3nccn3n2)c(=O)[nH]1` (single isomer, unassigned) [Example 528] are 8.20 and 7.89.
The corresponding values for `O=c1[nH]cc(-c2cc([C@H]3C[C@@H]3c3ccc4c(c3)ncn4CC(F)(F)F)c3nccn3n2)c(=O)[nH]1` [Example 324, 5-(8-((1S,2S)-2-(1-(2,2,2-trifluoroethyl)-1H-benzo[d]imidazol-5-yl)cyclopropyl)imidazo[1,2-b]pyridazin-6-yl)pyrimidine-2,4(1H,3H)-dione] are 8.94 and 8.80.
On to `O=c1[nH]cc(-c2cc([C@H]3C[C@@H]3c3ccc(F)cc3F)n3ncnc3n2)c(=O)[nH]1` [Example 416, 5-(7-((2S,2S)-2-(2,4-difluorophenyl)cyclopropyl)-[1,2,4]triazolo[1,5-a]pyrimidin-5-yl)pyrimidine-2,4(1H,3H)-dione], for which the pIC50 in experiment [2] is 9.15. The compound further had a pEC50 in experiment [3] of 7.48.
The corresponding values for `O=c1[nH]cc(-c2cc([C@H]3C[C@@H]3c3ccc(C(F)(F)F)cc3)n3ncnc3n2)c(=O)[nH]1` [Example 417, 5-(7-((2S,2S)-2-(4-(trifluoromethyl)phenyl)cyclopropyl)-[1,2,4]triazolo[1,5-a]pyrimidin-5-yl)pyrimidine-2,4(1H,3H)-dione] are 9.06 and 7.90.
For `O=c1[nH]cc(-c2cc([C@H]3C[C@@H]3c3cc4c(cnn4CC(F)(F)F)cc3F)c3ncc(F)n3n2)c(=O)[nH]1` [Example 613, 5-(3-fluoro-8-((1S,2S)-2-(5-fluoro-1-(2,2,2-trifluoroethyl)-1H-indazol-6-yl)cyclopropyl)imidazo[1,2-b]pyridazin-6-yl)pyrimidine-2,4(1H,3H)-dione], in that order: 9.24 and 9.15.
For `O=c1[nH]cc(-c2cc(N3C[C@@H]4C[C@H]3C(F)(F)C4)c3nccn3n2)c(=O)[nH]1` [Example 644, 5-(8-(6,6-difluoro-2-azabicyclo[2.2.1]heptan-2-yl)imidazo[1,2-b]pyridazin-6-yl)pyrimidine-2,4(1H,3H)-dione], in that order: less than 6.60 and 5.85.
